Legend:
adults with AML = experiment: Clinical outcome of VTX treated patients, clusters by 44-protein classifier (Example 1); format: in vivo, human
Description: Reverse Phase Protein Array (RPPA) as described by Tibes et al. 2006 and Kornblau et al. 2011 was performed on leukemia blast enriched fractions prepared from diagnostic samples of 818 adults with AML, of which 143 were treated with venetoclax (VTX) including 33 in combination with high dose Ara-C, 5 with standard dose Ara-C, 50 with hypomethylating agents (HMA), and 13 with HMA and targeted therapy (either CPX-351 liposome, a dual-drug liposomal encapsulation of cytarabine and daunorubicin, or anthracycline). Protein expression levels were evaluated using 390 validated antibodies against total and post translationally modified (phosphorylated, methylated, cleaved) as described by Hoff et al. 2019. proteins and were analyzed in the context of clinical data compiled by retrospective chart review. Pearson correlation was used to identify significant protein-protein correlations. Survival curves were generated by the Kaplan-Meier method and survival data was analyzed by multivariate cox regression model. Protein expression signatures were identified by hierarchical clustering and predictive models of protein classifiers were determined by classification and regression trees (CART) analysis.
We queried the 390 proteins (Table 1) assayed in the 143 VTX treated patients to identify proteins individually prognostic for overall survival (OS) or remission duration (REMDUR) and identified 27 proteins correlated with OS (p<0.01) and 44 proteins correlated with REMDUR (p<0.01). Neither MCL1, BCLXL nor BCL2 expression at diagnosis were prognostic of overall survival (OS) or remission duration (REMDUR).

[1] = test system: adult patients with newly diagnosed AML; experiment: Clinical outcome of VTX-containing induction chemotherapy, clusters by 36-protein classifier (Example 2); format: in vivo, human
Source text: Sample Collection and Processing. Peripheral blood (PB) and bone marrow (BM) samples were collected from 818 adult patients with newly diagnosed AML, of which 143 received VTX-containing induction chemotherapy, evaluated at the University of Texas MD Anderson Cancer Center (MDACC) between January 2012 and July 2020. Informed consent was obtained in accordance with the Declaration of Helsinki. Samples were processed and analyzed under an Investigational Review Board (IRB) approved laboratory protocol (Lab 06-0565).
Following data normalization, a cohort of 143 patients that received VTX-containing induction chemotherapy was identified for separate analysis for the purposes of this manuscript. Survival curves were generated by Kaplan-Meier method and survival data was analyzed by multivariate cox regression model. [Refs. 12, 13] Protein expression signatures were identified by hierarchical Progeny clustering. [Ref. 14] Correlations between clustered protein signatures and clinical features were assessed using Fisher's exact test for categorical variables and the Kruskal-Wallis test for continuous variables. Multivariate analysis for survival outcomes OS and RD was performed by Cox regression model. Median protein expression within clusters was compared to median expression in the normal controls to identify significant expression trends with the Wilcoxon test. Protein networks were built using Cytoscape (version 3.9.1) combining literature-based protein interactions queried from the STRING database and proteomic-based interactions inferred from the RPPA data derived from Pearson correlation. [Ref. 11] Predictive classifier models were assembled in Python using the random forest machine learning technique. All bioinformatics and analysis were performed in Rstudio (version 1.3.1093) with R (version 4.1.2).
A cohort of 143 patients that received VTX as a component of induction chemotherapy was identified, of which 27 received VTX combined with high-dose cytarabine (Ara-C), 29 combined with low- or standard-dose Ara-C, […], 6 with high-dose Ara-C and a hypomethylating agent, and 12 combined with targeted therapy (5 FLT3 inhibitors, 5 IDH inhibitors, 2 TP53 inhibitors). In the VTX cohort, 5 patients were not treated at MDACC leaving 138 patients evaluable for outcome and further analysis. Median age at diagnosis was 68 years (range 18-90 years) with median follow-up 58 weeks (range 2-396 weeks). […] Patient demographic, diagnostic labs, (data not shown) treatment, and outcome data was compiled to be analyzed against protein expression data.
Next, recurring patterns of expression were identified across the 36 proteins correlated to OS (FIGS. 3A and 3B) by applying the Progeny clustering algorithm utilizing k-means, and unbiased hierarchical clustering [Ref. 14] identifying three distinct protein expression patterns Cluster 1 (C1; n=41), Cluster 2 (C2; n=63), and Cluster 3 (C3; n=39). Protein expression was somewhat heterogeneous between clusters for several proteins, namely AR, STAT3.pY705, and RAF1.pS338. Expression of CDKN1B and CDKN1B.pS10 were nearly universally high in AML samples relative to the CD34+ controls, albeit phosphorylated CDKN1B was relatively higher in C1 members. While universally low across AMVL samples, ASH2L and MSH6 were relatively lower in the C1 signature as were PRMT1, MAPK14.pT180, HSF1.pS326, EIF4EBP1.pS65, EIF2AK2, and WDR5. The C3 signature was marked by relatively high expression of PrMT1, KMT2D, STAT3.pS727, EP300, and TSC2 and relatively low expression in AKR1C3, YWHAE, TNK1, COPS5, ATF3, SGK1, VTCN1, TNFRSF4, and PEA15.

MV4-11 VTX-sen cell line = experiment: Immunoblot protein expression after VTX treatment, MV4-11 cells; format: cell-based; conditions: 24 hours post treatment with VTX, identical experimental conditions
Description: Protein expression validation in AML cell lines. MOLM-13 parental and VTX-resistant cells were the kind gift of Dr. Marina Konopleva (MD Anderson Cancer Center; Houston, TX, USA). OCI-AML-3, KG-1, and MV4-11 cells were obtained from the Leukemia Sample Bank (LSB) at MD Anderson. For protein expression comparison in cell lines, immunoblot analysis was performed. Cells were boiled and sonicated in lysis buffer and protein (1.5×10^5 cell equivalents) was subjected to electrophoresis using SDS/PAGE. Immunoblot analysis was performed with antibodies against CBL (BD Transduction Lab), PRKCB.pS660 (Cell Signaling, Beverly, MA), SYK (Santa Cruz, Dallas, TX), PKM2 (Cell Signaling), STAT3.pS727 (Cell Signaling), Beta-Actin (Sigma Aldrich, St. Louis, MO), GADPH (Ambion, Austin, TX) and Alpha-Tubulin (Sigma Aldrich). Signals were detected by using the ProteinSimple FluorChem imaging system and quantified by AlphaView software. Beta-Actin, GAPDH, and Alpha-Tubulin were used as loading controls. Densitometry was calculated as protein expression/expression of housekeeping gene, relative to the control.
The above findings were validated by looking for similar responses in cell lines in vitro in response to VTX exposure. […]

For `CC1(C)CCC(CN2CCN(c3ccc(C(=O)NS(=O)(=O)c4ccc(NCC5CCOCC5)c([N+](=O)[O-])c4)c(Oc4cnc5[nH]ccc5c4)c3)CC2)=C(c2ccc(Cl)cc2)C1` [VTX, venetoclax], the Remission rate (adults with AML; cluster 1) was 61%, the “relapse risk (RR) at 1-yr” value (adults with AML; cluster 1) was 45% and the “estimated 3-yr overall survival” value (adults with AML; cluster 1 (n=102)) was 27%. The Remission rate (adults with AML; cluster 2) was 77%, the “relapse risk (RR) at 1-yr” value (adults with AML; cluster 2) was 18% and the “estimated 3-yr overall survival” value (adults with AML; cluster 2 (n=41)) was 66%. For the same molecule, the “median OS” value ([1]; C1) was 182.7 weeks, the relapse rate ([1]; C1, patients that achieved remission (n=32)) was 21.9% and the “median OS” value ([1]; C2) was 55.1 weeks. The median remission duration ([1]; C2) was 129 weeks, the relapse rate ([1]; C2, patients that achieved remission (n=40)) was 42.5% and the “median OS” value ([1]; C3) was 35.7 weeks. It also gave a median remission duration ([1]; C3) of 39 weeks, a relapse rate ([1]; C3, patients that achieved remission (n=18)) of 66.7% and a Remission rate ([1]; Cluster 1 (C1)) of 82%. For the same molecule, the Remission rate ([1]; Cluster 2 (C2)) was 70%, the Remission rate ([1]; Cluster 3 (C3)) was 50% and the “Remission (CR/CRi) achieved” value ([1]; all evaluable patients (138), n=90) was 65%. For the same molecule, the “relapsed, of patients in remission” value ([1]; of 90 patients in remission, n=36) was 40% and the “reduction in the expression of PKM2” value (MV4-11 VTX-sen cell line) was greater than 50%.

From US20240426824A1, “METHODS RELATING TO TREATMENT OF ACUTE MYELOID LEUKEMIA” (BOARD OF REGENTS, THE UNIVERSITY OF TEXAS SYSTEM, priority 2021, published 2024)
